Test results published in PMC7251123, “CX-5461 activates the DNA damage response and demonstrates therapeutic efficacy in high-grade serous ovarian cancer” (Nature Communications, 2020).

Assays:
[1] = system: replication forks in OVCAR8 cells; experiment: DNA fibre analysis after 24 h pre-treatment; type: cell-based, human; settings: OVCAR8, 100 nM, 24 h pre-treatment then CldU/IdU labelling
Procedure: Error bars represent mean ± SD. d DNA fibre analysis of OVCAR8 cells pre-treated with 100 nM CX-5461, 100 nM BMN-673 or in combination, washed then sequentially labelled with CldU and IdU as indicated in the schematic (top). Fibres were processed and analyzed as described above. n = 150 replication tracks were analysed over two independent experiments. Error bars represent mean ± SD.
We therefore performed DNA fibre analysis to investigate the effect of CX-5461 on fork stabilization (Fig. 6c and Supplementary Fig. 8A) in OVCAR8 cells. Nascent replication tracks were sequentially labelled with CldU and IdU before treatment with CX-5461 for 3 h. […] We next assessed whether DNA damage induced by CX-5461 treatment affects fork progression by pre-treating cells with CX-5461 for 24 h and then pulse labelled with both analogs (Fig. 6d).

[2] = system: panel of 32 established human OVCA cell lines; experiment: Cell proliferation dose response (IncuCyte ZOOM), 48 h, whole panel; type: cell-based; settings: 32 OVCA cell lines, threshold for sensitive, read-out: geometric median of GI50
Procedure: (§1) The in vitro effects of CX-5461 on human OVCA cells were evaluated using a panel of 32 established human OVCA cell lines. These cell lines were selected to be representative of a range of histologic OVCA subtypes (Supplementary Table 1). Increasing concentrations (1 nM–10 μM) of CX-5461 were used to assess the concentration of drug that induced a 50% reduction in cell proliferation (GI50) at 48 hours (h). […] There was no statistically significant correlation between TP53 mutation status and sensitivity to CX-5461 (Supplementary Table 1, Fig. 1b). The efficacy of growth inhibition by CX-5461 correlated with a higher rate of basal rDNA transcription in the sensitive compared with the resistant OVCA cell lines (Fig. 1c).
(§2) Fig. 1 Sensitivity of ovarian cancer (OVCA) cell lines to CX-5461. a CX-5461 doses that induce 50% growth inhibition (GI50) at 48 hours. Error bars represent mean ± standard deviation (SD). […]
(§3) For assessing OVCA cells’ sensitivity to CX-5461, dose response curves were generated for each cell line by plating cells in 96-well plates, culturing them for 24 hours and then treating them with either vehicle or increasing concentrations of drug (0, 0.001, 0.003, 0.01, 0.03, 0.1, 0.3, 1, 3, 10 and 30 μM CX-5461) for 48 h. Cell number was assessed using the IncuCyte ZOOM imaging system (Essen BioScience). […] During this time the degree of confluency was measured every 24 h. […]

[3] = system: OV90; experiment: Cell proliferation dose response (IncuCyte ZOOM), 48 h; type: cell-based; settings: Homo sapiens, OV-90; OV90, 48 h; read-out: GI50 (concentration inducing 50% reduction in cell proliferation)
Procedure: as §1, §2, §3

[4] = system: OVCAR3; experiment: as above; type: cell-based; settings: Homo sapiens, OVCAR-3; OVCAR3, 48 h; read-out: GI50 (concentration inducing 50% reduction in cell proliferation)
Procedure: as §1, §2, §3

Q: `Cc1cnc(CNC(=O)c2c(=O)c3ccc(N4CCCN(C)CC4)nc3n3c2sc2ccccc23)cn1` [CX-5461] was tested. Which “fork progression / fork length” value [1] did it give?
A: no effect on fork length

Q: What about the GI50 [2] of the same molecule?
A: 363 nM

Q: And the GI50 [3]?
A: 5170 nM

Q: And the GI50 [4]?
A: 12 nM
